Values after ≈ are worked out from the molar mass of the structure shown.
Tests used:
[1] = system: S. epidermidis ATCC 12228; test: microbe, parasite or virus in culture; type: cell-based, Staphylococcus epidermidis; settings: S. epidermidis ATCC 12228, MHB
Experimental: (§1) The antibacterial activity of TP10-NH2-based conjugates, as well as its constituents, was evaluated by microdilution assay in Mueller Hinton broth, MHB (Table 1). […] There are, however, some exceptions. […] Its activity against two other tested bacteria was somewhat lower though.
(§2) The antibacterial activity (bacteriostatic: MIC and bactericidal: MBC) of the tested compounds was determined in MHB (Mueller Hinton Broth, Sigma Aldrich, St. Louis, MO, USA) using a serial two-fold dilution method in 96-well microtiter plates according to CLSI recommendations, described in M07-A10 document. The exact conditions have been described previously. All experiments were performed in three replicates. The MIC90 and MIC50 values were defined as the concentrations of compounds tested that caused a 90% or 50% reduction of growth, respectively, comparing to the drug-free control.

[2] = system: C. albicans Gu4
[3] = system: C. glabrata DSM 11226
[4] = system: S. aureus ATCC 29213; test: microbe, parasite or virus in culture; type: cell-based, Staphylococcus aureus; settings: S. aureus ATCC 29213, MHB
Experimental: as §1, §2

[5] = system: HEK 293; test: cells; type: cell-based, human; settings: HEK 293, 72 h, MTT
Experimental: (§3) Among the conjugates, LVXC-S-S-CTP10-NH2 (5) was the least cytotoxic. […] In the case of HEK 293 and LLC-PK1 cells, the IC50 values of 5 were nearly four times higher. […] Additionally, we noted that the cancer cells Hep G2 were less sensitive to the action of the given compounds than the non-cancer cells (HEK 293 and LLC-PK1).
(§4) Cytotoxicity was assessed against three mammalian cell lines: LLC-PK1, Hep G2, and HEK 293. Multiwell (96–well) plates were seeded at 7000 cells/well in Medium 199 supplemented with 7.5% FBS, MEM Eagle’s medium supplemented with 10% FBS, or DMEM medium supplemented with 10% FBS, respectively. All media were supplemented with L-glutamine and antibiotics (penicillin/streptomycin). Cells were allowed to attach overnight. Drugs were dissolved in cell culture medium and added to wells in 100-µL aliquots of 2× concentrated solutions, in triplicates. To control wells, 100 µL of the medium were added. Cells were incubated with the studied compounds for 72 h at 37 °C and 95%/5% or 90%/10% (HEK 293 cells) CO2 atmosphere. Then, 20-µL aliquots of MTT solution in PBS (4 mg/mL) were added to all wells and plates were incubated further for 3 h in 37 °C. Formazan crystals formed were dissolved in 100 µL of DMSO and the absorbance of the solutions was measured using a multiwell plate reader (Spark, Tecan, Männedorf, Switzerland) at λ = 540 nm. Cytotoxicity was determined compared to the drug-free control. All experiments were performed in triplicates.

[6] = system: Hep G2; test: cells; type: cell-based, human; settings: Hep G2, 72 h, MTT
Experimental: as §3, §4

[7] = system: E. coli ATCC 25922; test: microbe, parasite or virus in culture; type: cell-based, Escherichia coli; settings: E. coli ATCC 25922, MHB
Experimental: as §1, §2

[8] = system: C. albicans Δopt1Δopt5Δptr2Δptr22
[9] = system: C. albicans SC 5314
[10] = system: LLC-PK1; test: cells; type: cell-based, pig; settings: LLC-PK1, 72 h, MTT
Experimental: as §3, §4

[11] = system: C. krusei DSM 6128
[12] = system: bacteria; test: Influence of salts: antibacterial activity in MHB2 compared to MHB; type: cell-based; settings: MHB2: Ca(II) 20–25 mg/L, Mg(II) 10–12.5 mg/L
Experimental: Additionally, for selected compounds, the aspect of the influence of salts present in the medium on antimicrobial activity was evaluated. […] In the salt-enriched medium, the MIC values determined for TP10-NH2 were up to 40-fold higher than those found in MHB. The phenomenon of reduction of the growth inhibitory activity of antimicrobial peptides at a high salt concentration was previously evidenced by other researchers. It may cause severe limitations for AMPs’ usage as therapeutic agents because of the risk of potential inactivation by salts present in the human body.

[13] = system: P. aeruginosa ATCC 27853; test: microbe, parasite or virus in culture; type: cell-based, Pseudomonas aeruginosa; settings: P. aeruginosa ATCC 27853, MHB
Experimental: as §1, §2

[14] = system: HL-60; test: ROS generation (CM-H2DCFDA, flow cytometry); type: cell-based, human; settings: positive cells in 24 h, class
Experimental: (§5) In the positive controls treated with H2O2, the fraction of ROS-positive cells exceeded 75%. […] Strikingly, in HL-60, a biologically significant effect was observed almost immediately (after 15 min of incubation). The same was noted after 1 h in the HEK 293 cell line. […] Similarly, conjugates 4 and 5 generated ROS at the low level (less than 15% for HL-60 and less than 20% for HEK 293) (manuscript in preparation). […] For HL-60, the critical level of ROS was noted after 15 min of incubation.
(§6) ROS generation activity was evaluated as described previously. Briefly, HEK 293 cells were seeded on 35-mm Petri dishes in the amount of 15,000 cells per plate for 24 h in DMEM medium. […] Positive controls contained 250 µM H2O2, while negative controls were without any additions. After 0.5, 2.5, 5.5, and 24 h of incubation at 37 °C, the CM-H2DCFDA molecular probe (Thermo Fischer Scientific, Waltham, USA) was added to the plates and incubation was continued for another 0.5 h. The HEK 293 cells were detached with 0.05% trypsin solution in PBS and HBSS (Hank’s Balanced Salt Solution) and suspended in fresh DMEM medium. All samples were additionally stained with 7-AAD (7-aminoactinomycin D, 0.8 µg/mL) and immediately analysed with a Guava easyCyte flow cytometer (Merc, Burlington, USA). The determinations were performed in triplicates.

[15] = system: HEK 293; test: ROS generation (CM-H2DCFDA, flow cytometry); type: cell-based, human; settings: positive cells in 24 h, class
Experimental: as §5, §6

[16] = system: HL-60 and HEK 293 cells; test: ROS generation, statements not split by cell line; type: cell-based, human; settings: cell line not specified
Experimental: as §5, §6

[17] = system: Gram-positive and Gram-negative bacteria; type: cell-based; settings: MHB, four bacteria
Experimental: as §1, §2

[18] = system: human red blood cells; test: Hemolysis assay; settings: 1 h, 37 °C
[19] = target: T1, yeast DNA topoisomerase II (Saccharomyces cerevisiae, UniProt P06786); test: biochemical; type: biochemical; settings: class; read-out: Topoisomerase II Inhibition
T1 construct: purchased Inspiralis (Norwich, UK)
T1 sequence (P06786 whole entry): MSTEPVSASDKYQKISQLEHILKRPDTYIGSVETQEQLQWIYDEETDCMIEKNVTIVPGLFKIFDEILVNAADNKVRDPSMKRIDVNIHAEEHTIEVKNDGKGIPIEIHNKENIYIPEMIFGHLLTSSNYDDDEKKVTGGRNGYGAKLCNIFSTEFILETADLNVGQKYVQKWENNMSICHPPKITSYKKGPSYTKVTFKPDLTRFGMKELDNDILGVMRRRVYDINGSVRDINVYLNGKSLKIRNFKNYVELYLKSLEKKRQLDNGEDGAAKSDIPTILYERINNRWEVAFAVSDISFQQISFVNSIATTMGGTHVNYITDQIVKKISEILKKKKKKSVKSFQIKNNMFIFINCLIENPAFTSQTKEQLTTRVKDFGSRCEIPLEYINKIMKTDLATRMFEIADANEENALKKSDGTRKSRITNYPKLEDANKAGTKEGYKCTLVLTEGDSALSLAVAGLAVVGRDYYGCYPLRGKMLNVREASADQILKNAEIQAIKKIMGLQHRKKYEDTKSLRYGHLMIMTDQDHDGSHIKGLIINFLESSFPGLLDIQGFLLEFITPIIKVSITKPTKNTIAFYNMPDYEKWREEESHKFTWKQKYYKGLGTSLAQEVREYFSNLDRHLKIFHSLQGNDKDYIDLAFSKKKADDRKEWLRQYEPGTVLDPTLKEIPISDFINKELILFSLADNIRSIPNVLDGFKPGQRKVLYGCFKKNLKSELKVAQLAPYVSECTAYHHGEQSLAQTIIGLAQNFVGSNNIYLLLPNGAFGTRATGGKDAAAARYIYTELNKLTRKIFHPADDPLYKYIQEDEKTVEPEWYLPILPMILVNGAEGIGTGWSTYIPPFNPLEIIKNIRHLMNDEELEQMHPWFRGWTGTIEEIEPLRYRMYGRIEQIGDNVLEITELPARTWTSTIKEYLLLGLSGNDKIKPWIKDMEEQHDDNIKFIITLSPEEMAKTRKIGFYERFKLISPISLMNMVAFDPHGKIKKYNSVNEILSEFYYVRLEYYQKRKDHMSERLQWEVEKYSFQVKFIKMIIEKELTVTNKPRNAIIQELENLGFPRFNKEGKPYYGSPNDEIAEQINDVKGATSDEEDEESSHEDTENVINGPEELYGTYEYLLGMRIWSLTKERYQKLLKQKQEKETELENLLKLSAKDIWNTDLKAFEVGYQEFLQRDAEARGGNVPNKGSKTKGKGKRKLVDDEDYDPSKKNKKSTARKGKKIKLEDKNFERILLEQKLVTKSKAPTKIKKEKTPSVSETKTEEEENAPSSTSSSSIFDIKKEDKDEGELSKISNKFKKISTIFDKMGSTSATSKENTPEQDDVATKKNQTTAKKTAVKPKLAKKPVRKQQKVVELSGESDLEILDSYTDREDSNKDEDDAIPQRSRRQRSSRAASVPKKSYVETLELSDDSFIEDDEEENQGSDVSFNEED

[20] = system: S. aureus ATCC 25,923 cells; test: Stability inside bacterial cells (LC-MS of cell lysate)
[21] = Stability in PBS and growth media; type: physicochemical; settings: phosphate-buffered saline and growth media used for antibacterial and antifungal tests
Description: CIP-S-S-TP10-NH2 was stable in phosphate-buffered saline (PBS) and growth media used for the determination of antibacterial and antifungal in vitro activity.

Work on `CC[C@H](C)[C@H](NC(=O)[C@H](CCCCN)NC(=O)[C@H](CCCCN)NC(=O)[C@H](C)NC(=O)[C@H](CC(C)C)NC(=O)[C@H](C)NC(=O)[C@H](C)NC(=O)[C@H](CC(C)C)NC(=O)[C@H](C)NC(=O)[C@H](CCCCN)NC(=O)[C@H](CC(C)C)NC(=O)[C@H](CC(N)=O)NC(=O)[C@@H](NC(=O)[C@H](CCCCN)NC(=O)CNC(=O)[C@H](CC(C)C)NC(=O)[C@H](CC(C)C)NC(=O)[C@H](Cc1ccc(O)cc1)NC(=O)CNC(=O)[C@H](C)NC(=O)CN1CCN(c2cc3c(cc2F)c(=O)c(C(=O)O)cn3C2CC2)CC1)[C@@H](C)CC)C(=O)N[C@@H](CC(C)C)C(N)=O` [Compound 1, CIP-CH2CO-TP10-NH2] yielded an MIC50 [1] of 6.25 µM (≈ 16 µg/mL), an MIC90 [1] of 12.5 µM (≈ 31.9 µg/mL) and an MIC50 [2] of 50 µM (≈ 128 µg/mL). The MIC50 [3] was over 200 µM, the MIC50 [4] was 12.5 µM (≈ 31.9 µg/mL) and the MIC90 [4] was 12.5 µM (≈ 31.9 µg/mL). For the same compound, the IC50 [5] was 10.8 ± 1.87 µM, the IC50 [6] was 21.7 ± 2.18 µM and the MIC50 [7] was 25 µM (≈ 63.8 µg/mL). It also gave an MIC90 [7] of 25 µM (≈ 63.8 µg/mL), an MIC50 [8] of 100 µM (≈ 255 µg/mL) and an MIC90 [8] of 200 µM (≈ 511 µg/mL). It also gave an MIC50 [9] of 50 µM (≈ 128 µg/mL), an MIC90 [9] of 100 µM (≈ 255 µg/mL) and an IC50 [10] of 17.8 ± 1.93 µM. For the same compound, the MIC50 [11] was 50 µM (≈ 128 µg/mL), the “Influence of salts (MHB2 vs MHB) on antibacterial activity” value [12] was “slight decrease of antibacterial activity” and the MIC50 [13] was over 100 µM. The MIC90 [13] was over 100 µM.

In the case of `CC[C@H](C)[C@H](NC(=O)[C@H](CCCCN)NC(=O)[C@H](CCCCN)NC(=O)[C@H](C)NC(=O)[C@H](CC(C)C)NC(=O)[C@H](C)NC(=O)[C@H](C)NC(=O)[C@H](CC(C)C)NC(=O)[C@H](C)NC(=O)[C@H](CCCCN)NC(=O)[C@H](CC(C)C)NC(=O)[C@H](CC(N)=O)NC(=O)[C@@H](NC(=O)[C@H](CCCCN)NC(=O)CNC(=O)[C@H](CC(C)C)NC(=O)[C@H](CC(C)C)NC(=O)[C@H](Cc1ccc(O)cc1)NC(=O)CNC(=O)[C@H](C)NC(=O)c1cn(C2CC2)c2cc(N3CCNCC3)c(F)cc2c1=O)[C@@H](C)CC)C(=O)N[C@@H](CC(C)C)C(N)=O` [Compound 2, CIP-TP10-NH2], the MIC50 [1] is reported as 1.6 µM (≈ 3.99 µg/mL), the MIC90 [1] is reported as 1.6 µM (≈ 3.99 µg/mL) and the MIC50 [2] is reported as 25 µM (≈ 62.4 µg/mL). The MIC50 [3] was over 200 µM, the MIC50 [4] was 0.8 µM (≈ 2 µg/mL) and the MIC90 [4] was 0.8 µM (≈ 2 µg/mL). For the same compound, the “ROS HL-60” value [14] was “++ (++ <10% positive cells in 24 h)”, the “ROS HEK 293” value [15] was “++ (++ <10% positive cells in 24 h)” and the ROS generation [16] was “no ROS generation was observed”. The IC50 [5] was 10.4 ± 1.39 µM, the IC50 [6] was 11.5 ± 2.03 µM and the “MIC values, range over tested bacteria” value [17] was 0.8 to 3.125 µM. For the same compound, the MIC50 [7] was 1.6 µM (≈ 3.99 µg/mL), the MIC90 [7] was 1.6 µM (≈ 3.99 µg/mL) and the MIC50 [8] was 6.25 µM (≈ 15.6 µg/mL). For the same compound, the MIC90 [8] was 12.5 µM (≈ 31.2 µg/mL), the MIC50 [9] was 12.5 µM (≈ 31.2 µg/mL) and the MIC90 [9] was 12.5 µM (≈ 31.2 µg/mL). The IC50 [10] was 27.1 ± 1.82 µM, the “MHC50 (concentration causing 50% hemolysis)” value [18] was 25 µg/mL and the “MHC50 (concentration causing 50% hemolysis)” value ([18]; converted from μg/mL) was ~ 10 μM. The MIC50 [11] was 50 µM (≈ 125 µg/mL).

`CC[C@H](C)[C@H](NC(=O)[C@H](CCCCN)NC(=O)[C@H](CCCCN)NC(=O)[C@H](C)NC(=O)[C@H](CC(C)C)NC(=O)[C@H](C)NC(=O)[C@H](C)NC(=O)[C@H](CC(C)C)NC(=O)[C@H](C)NC(=O)[C@H](CCCCN)NC(=O)[C@H](CC(C)C)NC(=O)[C@H](CC(N)=O)NC(=O)[C@@H](NC(=O)[C@H](CCCCN)NC(=O)CNC(=O)[C@H](CC(C)C)NC(=O)[C@H](CC(C)C)NC(=O)[C@H](Cc1ccc(O)cc1)NC(=O)CNC(=O)[C@H](C)NC(=O)CCSSCCC(=O)N1CCN(c2cc3c(cc2F)c(=O)c(C(=O)O)cn3C2CC2)CC1)[C@@H](C)CC)C(=O)N[C@@H](CC(C)C)C(N)=O` [Compound 3, CIP-S-S-TP10-NH2] showed an MIC50 [1] of 0.8 µM (≈ 2.15 µg/mL), an MIC90 [1] of 0.8 µM (≈ 2.15 µg/mL) and an MIC50 [2] of 6.25 µM (≈ 16.8 µg/mL). The MIC50 [3] was over 200 µM, the MIC50 [4] was 0.8 µM (≈ 2.15 µg/mL) and the MIC90 [4] was 0.8 µM (≈ 2.15 µg/mL). The IC50 [19] was under 50 µM, the “ROS HL-60” value [14] was “+ (+ <15% positive cells in 24 h)” and the “ROS HEK 293” value [15] was “++ (++ <10% positive cells in 24 h)”. The “Stability inside bacterial cells” value [20] was “reduced inside the cell”, the ROS generation [16] was “no ROS generation was observed” and the IC50 [5] was 13.1 ± 1.22 µM. It also gave an IC50 [6] of 19 ± 2.08 µM, an MIC50 [7] of 0.0125 µM (≈ 0.0336 µg/mL) and an MIC90 [7] of 0.025 µM (≈ 0.0672 µg/mL). The MIC50 [8] was 12.5 µM (≈ 33.6 µg/mL), the MIC90 [8] was 25 µM (≈ 67.2 µg/mL) and the MIC50 [9] was 6.25 µM (≈ 16.8 µg/mL). The MIC90 [9] was 25 µM (≈ 67.2 µg/mL), the IC50 [10] was 16.8 ± 2.62 µM and the “Stability in PBS and growth media” value [21] was “stable”. The MIC50 [11] was 25 µM (≈ 67.2 µg/mL), the MIC50 [13] was 0.8 µM (≈ 2.15 µg/mL) and the MIC90 [13] was 1.6 µM (≈ 4.3 µg/mL).
